Results taken from US11208412B2 (DAEGU-GYEONGBUK MEDICAL INNOVATION FOUNDATION, priority 2017, dated 2021).

Assays:
Assay in all cases: Kinase selectivity, DiscoverX scanMAX Kinase assay panel (% control)
Assay type in all cases: binding
[1] = biological target: T1, kinases of the scanMAX Kinase assay panel (Homo sapiens, UniProt P53778); conditions: p38-gamma; 1 uM
T1 construct: purchased DiscoverX Co. (contract measurement) scanMAX Kinase assay panel
T1 sequence (P53778 1-367): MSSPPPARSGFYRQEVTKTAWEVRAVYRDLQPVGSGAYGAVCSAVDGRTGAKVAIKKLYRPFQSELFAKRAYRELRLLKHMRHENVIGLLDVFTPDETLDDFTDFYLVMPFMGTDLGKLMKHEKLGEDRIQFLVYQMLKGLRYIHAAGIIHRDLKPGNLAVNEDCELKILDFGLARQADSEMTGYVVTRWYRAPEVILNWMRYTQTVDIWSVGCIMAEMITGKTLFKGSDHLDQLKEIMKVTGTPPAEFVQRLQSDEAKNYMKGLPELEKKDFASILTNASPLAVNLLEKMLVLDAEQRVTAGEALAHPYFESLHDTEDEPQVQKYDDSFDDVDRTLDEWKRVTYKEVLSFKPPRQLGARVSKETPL
Summary of the method: (§1)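 Percent of control computed as (compound − positive control)/(negative control − positive control) × 100, DMSO defining 100% and positive control 0%. Each panel kinase exposed to 1 uM compound; values under 35% taken to mean the compound acts on that kinase.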

[2] = biological target: T2, kinases of the scanMAX Kinase assay panel (Homo sapiens, UniProt O43318); conditions: kinase TAK1; 1 uM in DMSO
T2 construct: purchased DiscoverX Co. (contract measurement) scanMAX Kinase assay panel
T2 sequence (O43318 1-606): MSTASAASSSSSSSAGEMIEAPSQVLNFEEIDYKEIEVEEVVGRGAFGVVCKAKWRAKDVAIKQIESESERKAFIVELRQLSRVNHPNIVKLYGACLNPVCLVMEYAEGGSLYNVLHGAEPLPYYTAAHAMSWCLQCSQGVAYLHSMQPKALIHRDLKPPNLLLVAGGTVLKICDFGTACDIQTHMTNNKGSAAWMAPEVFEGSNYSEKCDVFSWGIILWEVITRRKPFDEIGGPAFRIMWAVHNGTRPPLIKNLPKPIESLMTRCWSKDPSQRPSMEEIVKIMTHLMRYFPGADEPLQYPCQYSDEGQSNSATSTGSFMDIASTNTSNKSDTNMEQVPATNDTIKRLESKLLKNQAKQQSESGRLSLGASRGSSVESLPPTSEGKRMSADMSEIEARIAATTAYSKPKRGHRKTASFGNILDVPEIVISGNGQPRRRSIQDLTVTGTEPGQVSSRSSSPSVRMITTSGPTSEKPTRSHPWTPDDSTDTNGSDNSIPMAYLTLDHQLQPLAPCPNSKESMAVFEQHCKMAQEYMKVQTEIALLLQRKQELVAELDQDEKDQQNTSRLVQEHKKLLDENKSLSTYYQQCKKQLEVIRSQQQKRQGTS
Summary of the method: as §1

[3] = biological target: T3, kinases of the scanMAX Kinase assay panel (Homo sapiens, UniProt P00533, L858R); conditions: EGFR(L858R); 1 uM
T3 construct: purchased DiscoverX Co. (contract measurement) scanMAX Kinase assay panel
T3 sequence (P00533 25-1210 L858R): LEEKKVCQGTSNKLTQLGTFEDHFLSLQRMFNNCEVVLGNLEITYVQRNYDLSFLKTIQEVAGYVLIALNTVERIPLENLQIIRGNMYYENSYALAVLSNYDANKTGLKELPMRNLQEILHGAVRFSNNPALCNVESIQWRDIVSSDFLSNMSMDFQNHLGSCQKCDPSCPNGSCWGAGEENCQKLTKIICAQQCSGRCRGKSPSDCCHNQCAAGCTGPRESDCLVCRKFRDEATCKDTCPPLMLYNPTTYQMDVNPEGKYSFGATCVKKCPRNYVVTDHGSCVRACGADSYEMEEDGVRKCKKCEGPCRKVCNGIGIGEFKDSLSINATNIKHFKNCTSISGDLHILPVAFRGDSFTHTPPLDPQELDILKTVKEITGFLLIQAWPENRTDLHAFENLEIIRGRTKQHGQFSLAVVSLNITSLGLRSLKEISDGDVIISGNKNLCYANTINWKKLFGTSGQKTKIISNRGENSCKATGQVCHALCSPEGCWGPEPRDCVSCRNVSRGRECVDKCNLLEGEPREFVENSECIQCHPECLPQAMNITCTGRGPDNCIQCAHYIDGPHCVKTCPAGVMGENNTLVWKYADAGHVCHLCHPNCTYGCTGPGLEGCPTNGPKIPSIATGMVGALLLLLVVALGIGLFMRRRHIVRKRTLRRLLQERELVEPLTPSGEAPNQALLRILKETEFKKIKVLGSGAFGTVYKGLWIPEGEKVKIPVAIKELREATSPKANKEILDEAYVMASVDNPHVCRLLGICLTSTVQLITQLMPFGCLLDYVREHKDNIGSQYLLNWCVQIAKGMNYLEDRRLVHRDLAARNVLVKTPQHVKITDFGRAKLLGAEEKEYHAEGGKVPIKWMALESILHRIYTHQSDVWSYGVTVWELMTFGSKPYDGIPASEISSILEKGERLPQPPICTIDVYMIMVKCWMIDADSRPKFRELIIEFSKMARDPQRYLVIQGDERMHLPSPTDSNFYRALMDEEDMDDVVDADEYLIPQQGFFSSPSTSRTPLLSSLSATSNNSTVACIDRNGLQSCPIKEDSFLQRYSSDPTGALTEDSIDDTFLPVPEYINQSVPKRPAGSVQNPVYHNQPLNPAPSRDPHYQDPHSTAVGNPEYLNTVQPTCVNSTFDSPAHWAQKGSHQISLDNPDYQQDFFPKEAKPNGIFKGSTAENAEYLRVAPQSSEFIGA
Summary of the method: as §1

[4] = biological target: T4, kinases of the scanMAX Kinase assay panel (Homo sapiens, UniProt Q16512); conditions: PKN1; 1 uM
T4 construct: purchased DiscoverX Co. (contract measurement) scanMAX Kinase assay panel
T4 sequence (Q16512 whole entry): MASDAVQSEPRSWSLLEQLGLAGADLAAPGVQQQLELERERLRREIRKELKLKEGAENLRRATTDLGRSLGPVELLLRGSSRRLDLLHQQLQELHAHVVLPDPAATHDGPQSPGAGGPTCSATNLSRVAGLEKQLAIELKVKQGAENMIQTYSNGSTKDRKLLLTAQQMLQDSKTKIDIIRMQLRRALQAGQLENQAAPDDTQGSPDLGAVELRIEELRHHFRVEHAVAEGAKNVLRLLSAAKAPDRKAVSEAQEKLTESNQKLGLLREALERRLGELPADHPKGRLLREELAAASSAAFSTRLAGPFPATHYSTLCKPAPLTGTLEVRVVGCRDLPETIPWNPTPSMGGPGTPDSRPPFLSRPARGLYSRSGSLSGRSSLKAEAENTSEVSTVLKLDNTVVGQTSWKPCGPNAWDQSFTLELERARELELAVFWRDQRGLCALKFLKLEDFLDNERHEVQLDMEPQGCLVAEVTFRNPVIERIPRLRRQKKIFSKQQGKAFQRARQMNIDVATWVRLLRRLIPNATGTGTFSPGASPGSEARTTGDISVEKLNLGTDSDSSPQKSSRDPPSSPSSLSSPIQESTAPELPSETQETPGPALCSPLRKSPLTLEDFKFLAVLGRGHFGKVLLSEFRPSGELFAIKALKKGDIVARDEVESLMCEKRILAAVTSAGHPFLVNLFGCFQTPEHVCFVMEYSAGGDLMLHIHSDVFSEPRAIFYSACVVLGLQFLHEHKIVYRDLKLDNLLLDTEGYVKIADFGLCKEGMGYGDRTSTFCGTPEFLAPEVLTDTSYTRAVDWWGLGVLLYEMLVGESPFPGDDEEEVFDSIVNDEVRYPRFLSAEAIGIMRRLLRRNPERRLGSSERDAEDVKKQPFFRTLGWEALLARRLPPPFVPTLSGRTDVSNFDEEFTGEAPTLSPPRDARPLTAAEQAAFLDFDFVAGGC
Summary of the method: as §1

[5] = biological target: T5, kinases of the scanMAX Kinase assay panel (Homo sapiens, UniProt O00444); conditions: PLK4; 1 uM
T5 construct: purchased DiscoverX Co. (contract measurement) scanMAX Kinase assay panel
T5 sequence (O00444 1-970): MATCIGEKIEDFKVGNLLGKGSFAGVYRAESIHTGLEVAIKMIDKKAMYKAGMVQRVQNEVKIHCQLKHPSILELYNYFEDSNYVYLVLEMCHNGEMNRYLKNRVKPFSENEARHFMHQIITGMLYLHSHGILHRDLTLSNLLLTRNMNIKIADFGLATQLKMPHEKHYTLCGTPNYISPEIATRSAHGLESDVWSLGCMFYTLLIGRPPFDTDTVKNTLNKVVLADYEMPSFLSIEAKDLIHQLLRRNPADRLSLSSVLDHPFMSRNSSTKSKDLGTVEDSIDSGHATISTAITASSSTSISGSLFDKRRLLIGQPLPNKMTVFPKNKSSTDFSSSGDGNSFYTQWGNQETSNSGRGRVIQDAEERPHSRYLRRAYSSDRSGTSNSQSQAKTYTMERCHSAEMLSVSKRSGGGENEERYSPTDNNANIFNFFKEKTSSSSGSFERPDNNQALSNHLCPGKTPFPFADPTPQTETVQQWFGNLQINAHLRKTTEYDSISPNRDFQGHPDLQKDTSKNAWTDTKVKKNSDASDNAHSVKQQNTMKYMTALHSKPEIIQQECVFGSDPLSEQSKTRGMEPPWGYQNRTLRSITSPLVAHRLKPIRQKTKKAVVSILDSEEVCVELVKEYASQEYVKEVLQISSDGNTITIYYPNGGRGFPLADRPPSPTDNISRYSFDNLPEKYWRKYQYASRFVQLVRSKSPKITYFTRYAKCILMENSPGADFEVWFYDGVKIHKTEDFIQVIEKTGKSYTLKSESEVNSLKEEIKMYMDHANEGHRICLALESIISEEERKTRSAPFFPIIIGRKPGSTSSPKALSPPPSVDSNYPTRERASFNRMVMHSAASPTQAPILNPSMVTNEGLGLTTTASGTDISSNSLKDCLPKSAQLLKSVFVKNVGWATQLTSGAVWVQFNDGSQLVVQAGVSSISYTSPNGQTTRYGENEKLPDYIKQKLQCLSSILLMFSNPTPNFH
Summary of the method: as §1

| SMILES | remaining binding at 1 µM [1] [%] | remaining binding at 1 µM [2] [%] | remaining binding at 1 µM [3] [%] | remaining binding at 1 µM [4] [%] | remaining binding at 1 µM [5] [%] |
| --- | --- | --- | --- | --- | --- |
| CC1(Nc2nc(Nc3cnn([C@H]4CCN(C5COC5)C[C@@H]4F)c3Cl)nc3[nH]cc(C#N)c23)CC1 [Example 52, 2-((5-chloro-1-((3S,4S)-3-fluoro-1-(oxetane-3-yl)piperidine-4-yl)-1H-pyrazole-4-yl)amino)((1-methylcyclopropyl)amino)-7H-pyrrolo[2,3-d]pyrimidine-5-carbonitrile] | 77 | 0.05 | 41 | 67 | 0 |
| CNc1nc(Nc2ccc(C(=O)N3CCOCC3)cc2OC)nc2[nH]cc(C#N)c12 [Example 1, 2-((2-methoxy-4-(morpholine-4-carbonyl)phenyl)amino)-4-(methylamino)-7H-pyrrolo[2,3-d]pyrimidine-5-carbonitrile] | 70 | 52 | 96 | 100 | 17 |
| CCNc1nc(Nc2ccc(C(=O)N3CCC(N4CCOCC4)CC3)cc2OC)nc2[nH]cc(C(F)(F)F)c12 [Example 104, (4-((4-(ethylamino)-5-(trifluoromethyl)-7H-pyrrolo[2,3-d]pyrimidine-2-yl)amino)-3-methoxyphenyl)(4-morpholinopiperidine-1-yl)methanone] | 89 | 100 | 89 | 95 | 1.7 |
